Common to all, as to type: in vivo
The test system of assay [1] is Lolium perenne (LOLPE). Kind of assay: Post-emergence herbicidal activity, glasshouse pot test. To be noted: Lolium perenne, 312 h, rate 250 g/ha, evaluated after 13 days, read-out: Post-emergence activity LOLPE (100=total damage to plant; 0=no damage to plant). The method in brief:
(§1)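 Seeds sown in standard soil in pots were sprayed 1 day after sowing (pre-emergence) or after 8 days' cultivation (post-emergence) with aqueous spray from acetone/water (50:50) formulation containing 0.5% Tween 20. Plants grew at 24/16° C day/night, 14 h light, 65% humidity, watered twice daily. Damage scored after 13 days, 0–100.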

The subject of assay [2] is Alopecurus myosuroides (ALOMY). The description is as above. Particulars: Alopecurus myosuroides, 312 h, rate 250 g/ha, evaluated after 13 days, read-out: Post-emergence activity ALOMY (100=total damage to plant; 0=no damage to plant). The method in brief:
as §1

Assay [3] concerns Avena fatua (AVEFA). Described as above. To be noted: Avena fatua, 312 h, rate 250 g/ha, evaluated after 13 days, read-out: Post-emergence activity AVEFA (100=total damage to plant; 0=no damage to plant). Summed up: as §1
In assay [4] the test system is Echinochloa crus-galli (ECHCG). The assay is described as above. Particulars: Echinochloa crus-galli, 312 h, rate 250 g/ha, evaluated after 13 days, read-out: Post-emergence activity ECHCG (100=total damage to plant; 0=no damage to plant). Summed up: as §1
For assay [5], the system named is Lolium perenne (LOLPE). Kind of assay: Pre-emergence herbicidal activity, glasshouse pot test. Particulars: Lolium perenne, 312 h, Rate 250 g/ha, evaluated after 13 days, read-out: Pre-emergence activity LOLPE (100=total damage to plant; 0=no damage to plant). The method in brief:
as §1

Assay [6] concerns Alopecurus myosuroides (ALOMY). The assay is described as above. To be noted: Alopecurus myosuroides, 312 h, Rate 250 g/ha, evaluated after 13 days, read-out: Pre-emergence activity ALOMY (100=total damage to plant; 0=no damage to plant). The method in brief:
as §1

The test system of assay [7] is Avena fatua (AVEFA). Described as above. To be noted: Avena fatua, 312 h, Rate 250 g/ha, evaluated after 13 days, read-out: Pre-emergence activity AVEFA (100=total damage to plant; 0=no damage to plant). The method in brief:
as §1

Assay [8] relates to Echinochloa crus-galli (ECHCG). The description is as above. To be noted: Echinochloa crus-galli, 312 h, Rate 250 g/ha, evaluated after 13 days, read-out: Pre-emergence activity ECHCG (100=total damage to plant; 0=no damage to plant). Summed up:
as §1

Regarding `CC1(C)OC(C)(C)C(O)=C(c2cc(Oc3nc4ccccc4s3)ccc2C2CC2)C1=O` [Example A-365], the pest or weed control at 250 g/ha in the assay with Lolium perenne (LOLPE) [1] is 100%; in assay [2] it was 100%; in the assay on Avena fatua (AVEFA) [3], 10%; in assay [4] it was 100%; in the assay on Lolium perenne (LOLPE) [5] (pre-emergence) it was 90%; in assay [6] (pre-emergence), 80%. The figures for the pest or weed control at 250 g/ha (in the assay with Avena fatua (AVEFA) [7] (pre-emergence); in assay [8] (pre-emergence)) were 0% and 100%, respectively.
As for `CCc1ccc(Oc2nc3c(Cl)cc(Cl)cc3s2)cc1C1=C(O)C(C)(C)OC(C)(C)C1=O` [Example A-221], the pest or weed control at 250 g/ha in the assay on Lolium perenne (LOLPE) [1] (glasshouse) was found to be 90%; in assay [2] (glasshouse), 80%; with Avena fatua (AVEFA) [3] (glasshouse), 50%; in assay [4] (glasshouse), 100%; in the assay on Lolium perenne (LOLPE) [5] (pre-emergence spray), 60%; in assay [6] (pre-emergence spray), 60%. The pest or weed control at 250 g/ha in the assay on Avena fatua (AVEFA) [7] (pre-emergence spray) was 40%; in assay [8] (pre-emergence spray), 70%.
Regarding `CCc1ccc(Oc2ccc(Br)cc2F)cc1C1=C(O)[C@@H]2CC[C@](C)(C1=O)C2(C)C` [Example A-238], the pest or weed control at 250 g/ha stood at 90% with Lolium perenne (LOLPE) [1] (glasshouse); 70% in assay [2] (glasshouse); 90% with Avena fatua (AVEFA) [3] (glasshouse); 100% in assay [4] (glasshouse); 90% in the assay with Lolium perenne (LOLPE) [5] (pre-emergence spray); 60% in assay [6] (pre-emergence spray). Besides, the pest or weed control at 250 g/ha is 40% in the assay on Avena fatua (AVEFA) [7] (pre-emergence spray) and 100% in assay [8] (pre-emergence spray).
As for `CCc1ccc(Oc2ccc(Cl)c(F)c2)cc1C1=C(O)C(C)(C)CCC1=O` [Example A-52], the pest or weed control at 250 g/ha was 50% with Lolium perenne (LOLPE) [1] (glasshouse); 30% in assay [2] (glasshouse); 40% in the assay with Avena fatua (AVEFA) [3] (glasshouse); 90% in assay [4] (glasshouse); 70% with Lolium perenne (LOLPE) [5] (pre-emergence spray); 40% in assay [6] (pre-emergence spray). Also, the pest or weed control at 250 g/ha amounted to 20% in the assay on Avena fatua (AVEFA) [7] (pre-emergence spray) and 60% in assay [8] (pre-emergence spray).
With `CCc1ccc(Oc2ccc(Cl)cc2Cl)cc1C1=C(O)CC2(CCOCC2)CC1=O` [Example A-190], the pest or weed control at 250 g/ha in the assay with Lolium perenne (LOLPE) [1] (glasshouse) was 90%; in assay [2] (glasshouse), 80%; in the assay on Avena fatua (AVEFA) [3] (glasshouse) it was 90%; in assay [4] (glasshouse) it was 100%; in the assay on Lolium perenne (LOLPE) [5] (pre-emergence spray), 50%; in assay [6] (pre-emergence spray) it was 30%. Besides, the figures for the pest or weed control at 250 g/ha (in the assay on Avena fatua (AVEFA) [7] (pre-emergence spray); in assay [8] (pre-emergence spray)) were 30% and 80%, respectively.
Take `CCc1ccc(Oc2ccc(C#N)cc2C(F)(F)F)cc1C1=C(O)CC2(CCOCC2)CC1=O` [Example A-306]: the pest or weed control at 250 g/ha in the assay on Lolium perenne (LOLPE) [1] (glasshouse) is 60%; in assay [2] (glasshouse) it was 70%; in the assay on Avena fatua (AVEFA) [3] (glasshouse) it was 80%; in assay [4] (glasshouse) it was 100%; with Lolium perenne (LOLPE) [5] (pre-emergence spray) it was 70%; in assay [6] (pre-emergence spray) it was 60%. For the same compound, the figures for the pest or weed control at 250 g/ha (with Avena fatua (AVEFA) [7] (pre-emergence spray); in assay [8] (pre-emergence spray)) were 0% and 100%, respectively.
As to `CCc1ccc(Oc2ccc(Br)cc2F)cc1C1=C(O)CC(C)(C)CC1=O` [Example A-49], the pest or weed control at 250 g/ha amounted to 90% in the assay with Lolium perenne (LOLPE) [1] (glasshouse); 90% in assay [2] (glasshouse); 70% with Avena fatua (AVEFA) [3] (glasshouse); 100% in assay [4] (glasshouse); 100% in the assay on Lolium perenne (LOLPE) [5] (pre-emergence spray); 90% in assay [6] (pre-emergence spray). Also, the pest or weed control at 250 g/ha stood at 40% in the assay on Avena fatua (AVEFA) [7] (pre-emergence spray) and 100% in assay [8] (pre-emergence spray).
Turning to `CCc1ccc(Oc2ccc(Cl)cc2)cc1C1=C(O)CCCC1=O` [Example A-27], the pest or weed control at 250 g/ha was determined as 30% in the assay on Lolium perenne (LOLPE) [1] (glasshouse); 30% in assay [2] (glasshouse); 40% with Avena fatua (AVEFA) [3] (glasshouse); 90% in assay [4] (glasshouse); 60% with Lolium perenne (LOLPE) [5] (pre-emergence spray); 40% in assay [6] (pre-emergence spray). In addition, the results for the pest or weed control at 250 g/ha (in the assay on Avena fatua (AVEFA) [7] (pre-emergence spray); in assay [8] (pre-emergence spray)) were 60% and 100%, respectively.
As to `CCc1ccc(Oc2ccc(Cl)c(C)c2)cc1C1=C(O)C(C)(C)OC(C)(C)C1=O` [Example A-184], the pest or weed control at 250 g/ha came to 30% in the assay with Lolium perenne (LOLPE) [1] (glasshouse); 20% in assay [2] (glasshouse); 0% with Avena fatua (AVEFA) [3] (glasshouse); 30% in assay [4] (glasshouse); 50% in the assay with Lolium perenne (LOLPE) [5] (pre-emergence spray); 10% in assay [6] (pre-emergence spray). Also, the pest or weed control at 250 g/ha was determined as 0% in the assay on Avena fatua (AVEFA) [7] (pre-emergence spray) and 50% in assay [8] (pre-emergence spray).
Regarding `CCc1ccc(Oc2ccc(Br)cc2Cl)cc1C1=C(O)[C@@H]2CC[C@](C)(C1=O)C2(C)C` [Example A-240], the pest or weed control at 250 g/ha is 60% in the assay on Lolium perenne (LOLPE) [1] (glasshouse); 30% in assay [2] (glasshouse); 40% in the assay with Avena fatua (AVEFA) [3] (glasshouse); 70% in assay [4] (glasshouse); 70% with Lolium perenne (LOLPE) [5] (pre-emergence spray); 30% in assay [6] (pre-emergence spray). The pest or weed control at 250 g/ha in the assay with Avena fatua (AVEFA) [7] (pre-emergence spray) was 0%; in assay [8] (pre-emergence spray), 70%.
`CCc1ccc(Oc2ccc(Br)cc2Cl)cc1C1=C(O)[C@H]2CC[C@H](C2)C1=O` [Example A-244]: the pest or weed control at 250 g/ha in the assay on Lolium perenne (LOLPE) [1] (glasshouse) amounted to 80%; in assay [2] (glasshouse), 60%; with Avena fatua (AVEFA) [3] (glasshouse) it was 70%; in assay [4] (glasshouse), 90%; in the assay with Lolium perenne (LOLPE) [5] (pre-emergence spray), 70%; in assay [6] (pre-emergence spray), 20%. Also, the pest or weed control at 250 g/ha in the assay with Avena fatua (AVEFA) [7] (pre-emergence spray) was 0%; in assay [8] (pre-emergence spray), 90%.
Take `CCc1ccc(Oc2ncc(Cl)cc2Cl)cc1C1=C(O)[C@H]2CC[C@H](C2)C1=O` [Example A-336]: the pest or weed control at 250 g/ha in the assay with Lolium perenne (LOLPE) [1] (glasshouse) amounted to 100%; in assay [2] (glasshouse), 90%; in the assay on Avena fatua (AVEFA) [3] (glasshouse), 80%; in assay [4] (glasshouse), 100%; with Lolium perenne (LOLPE) [5] (pre-emergence spray), 100%; in assay [6] (pre-emergence spray), 90%. The pest or weed control at 250 g/ha with Avena fatua (AVEFA) [7] (pre-emergence spray) was 80%; in assay [8] (pre-emergence spray) it was 100%.
In the case of `CCc1ccc(Oc2ccnc(Cl)c2)cc1C1=C(O)C(C)(C)OC(C)(C)C1=O` [Example A-72], the pest or weed control at 250 g/ha was found to be 40% in the assay with Lolium perenne (LOLPE) [1] (glasshouse); 60% in assay [2] (glasshouse); 50% in the assay with Avena fatua (AVEFA) [3] (glasshouse); 90% in assay [4] (glasshouse); 70% with Lolium perenne (LOLPE) [5] (pre-emergence spray); 60% in assay [6] (pre-emergence spray). Further, the pest or weed control at 250 g/ha in the assay on Avena fatua (AVEFA) [7] (pre-emergence spray) amounted to 30%; in assay [8] (pre-emergence spray), 90%.
Turning to `CCc1ccc(Oc2ccc(C(F)(F)F)cc2)cc1C1=C(O)C(C)(C)OC(C)(C)C1=O` [Example A-97], the pest or weed control at 250 g/ha turned out to be 90% in the assay on Lolium perenne (LOLPE) [1] (glasshouse); 100% in assay [2] (glasshouse); 90% with Avena fatua (AVEFA) [3] (glasshouse); 100% in assay [4] (glasshouse); 100% with Lolium perenne (LOLPE) [5] (pre-emergence spray); 80% in assay [6] (pre-emergence spray). The pest or weed control at 250 g/ha in the assay on Avena fatua (AVEFA) [7] (pre-emergence spray) was found to be 90%; in assay [8] (pre-emergence spray) it was 100%.
With `CCc1ccc(Oc2ccc3cc(Cl)ccc3n2)cc1C1=C(O)[C@@H]2CC[C@](C)(C1=O)C2(C)C` [Example A-235], the pest or weed control at 250 g/ha was found to be 100% with Lolium perenne (LOLPE) [1] (glasshouse); 90% in assay [2] (glasshouse); 100% in the assay with Avena fatua (AVEFA) [3] (glasshouse); 100% in assay [4] (glasshouse); 70% with Lolium perenne (LOLPE) [5] (pre-emergence spray); 50% in assay [6] (pre-emergence spray). In addition, the pest or weed control at 250 g/ha was found to be 30% in the assay on Avena fatua (AVEFA) [7] (pre-emergence spray) and 100% in assay [8] (pre-emergence spray).

Values taken from patent publication US8865623B2, “Herbicidally active cyclic diones and derivatives thereof, processes for their preparation, compositions, and method of controlling weeds” (Syngenta Limited, priority 2009, dated 2014).
